This data set can be described thus: physchem. How it is done: It was here determined how much influence a mixture of oleic acid and lecithin would put on the solubility of d-alpha-tocopherol. It was determined with changing ratios of the oleic acid to the lecithine how to dissolve d-alpha-tocopherol in 20 mM solution of bile acid.

Each structure is given as a SMILES string. Values after ≈ are worked out from the molar mass of the structure shown. Where two headings read alike, the source gives them in different places.

As usually defined, the solubility is how much of the substance goes into solution per volume. A low value points to a poorly soluble substance. As for `Cc1c(C)c2c(c(C)c1O)CC[C@@](C)(CCC[C@H](C)CCC[C@H](C)CCCC(C)C)O2` [d-alpha-tocopherol], the solubility entry is “high solubility”. Under “20 mm bile acid solution”, the solubility worked out at 2000 µg/mL (≈ 4.64 mM).

(Values after patent EP0347843A1, “Vitamine E composition improved in absorption” (Eisai Co., Ltd., priority 1988, dated 1989).)
